Measurements taken from PMC9234961 (Journal of Medicinal Chemistry, 2022).
In brackets after ≈: the same amount, converted by molar mass. Several values for one entry are separate records, joined by “and”; a condition that tells them apart may be missing. Equal entries are not always repeated. Where two headings read alike, the source gives them in different places.

How the values were obtained:
[1] = target: endogenous BCL6 in OCI-Ly1 cells (Homo sapiens, UniProt P41182); test: cell-based; conditions: for MSD degrader assay [OCI-Ly1] Dmax: mean maximal degradation of BCL6; for MSD degrader assay [OCI-LY1] pDC50 mean: mean of replicates; for degradation of BCL6 (in words): OCI-Ly1 MSD assay
[2] = Microsomal clearance assay (MLM); type: in vitro ADME; conditions: female, CD1, pH 7.4; mouse liver microsomes, 1 μM compound
Protocol: (§1) 6. Supplementary experimental: in vitro DMPK assays
(§2) 6.1 Microsomal clearance assay
(§3) Microsomal clearance was determined in female CD1 mice, female Sprague–Dawley rats, and mixed gender human liver microsomes obtained from BioIVT (Peterborough, U.K.) following incubation of 1 μM compound at 37 °C in 0.5 mg/mL microsomal protein, 3 mmol/L MgCl2, 1 mmol/L NADPH, 2.5 mmol/L and 10 mmol/L phosphate buffer (pH 7.4) (all purchased from Sigma-Aldrich, Gillingham, U.K). Reactions were started by addition of the cofactors following 10 min preincubation of microsomes with test compound and were terminated at −1, 0, 5, 10, 15, and 30 min with three volumes of ice-cold methanol containing internal standard. Samples were centrifuged at 2800g for 30 min at 4 °C and the supernatants analyzed.
(§4) Control incubations were prepared as above with omission of cofactors. Compound measurements were […]
(§5) separation with a 3 min gradient of 0.1% formic acid in methanol on a Kinetex C18, 50 × 2.1 mm 2.6 μm UPLC column (Phenomenex, Macclesfield, UK). […]

[3] = Microsomal clearance assay (HLM); type: in vitro ADME; conditions: both sexes, pH 7.4; human liver microsomes, 1 μM compound
Protocol: as §1, §2, §3, §4, §5

[4] = Microsomal clearance assay (RLM); type: in vitro ADME; conditions: female, Sprague-Dawley, pH 7.4; rat liver microsomes, 1 μM compound
Protocol: as §1, §2, §3, §4, §5

[5] = logD7.4 assay (Chrom log D method); type: physicochemical; conditions: pH 7.4, read-out: Measured logD7.4
Protocol: Calibration, validation and in-house compounds were prepared at 1mM in 10% DMSO / 90% Trizma solution (100mM Trizma in 75/25 methanol/water). 3 µL standard injections (with needle wash) of all calibration, validation and in-house samples were made onto a Phenomenex Luna C8 column (3µm, 100 x 4.6 mm, 100A, Phenomenex, Torrence, USA). Chromatographic separation at 30°C was carried out using […]
2 mL/min. The gradient was held at 0:100 water:organic for 0.8 minutes, then returned to the starting conditions of 95:5 water:organic for 0.2 minutes. The column was re-equilibrated for 5 minutes at the […]

NMR solubility assay = type: physicochemical; conditions: read-out: Aq. Sol.
Protocol: 4. Supplementary experimental: physicochemical assays
0.5 mM TCEP, 10% D2O) was pipetted into the same well and mixed by up-down pipetting 3 times to create […]
It was then separated by centrifugation (1000 rpm
The plate was then sealed and incubated at room temperature for 20 hours, […]
165 µL of the supernatant was transferred to a 3 mm NMR tube (Bruker, Part No. Z112272) using liquid handler SamplePro Tube SJ S (Bruker). The concentration of the solubilized compound in solubility sample is measured by quantitative 1H-NMR using a single external standard (200 µM caffeine (Sigma, C1778) in PBS (pH 7.4) with 1% DMSO-d6).
The detail of the NMR method is as following: NMR data was collected on a Bruker Avance Neo 600 spectrometer equipped with a 5 mm TCI-CryoProbe. The 1H spectrum was referenced to the internal deuterated solvent. The operating frequency for 1H was 600 MHz. All NMR data were acquired at the […]
1H-NMR spectrum was acquired using a Bruker standard 1D lc1pngppsf2 pulse sequence with 32 scans.
The sweep width was 6.2 ppm with O1P set to 8.8 ppm, and the FID contained 16k time-domain data points. Relaxation delay was set to 20 sec. Water signal was suppressed. […]

in vitro [6] = type: in vitro ADME; conditions: PAMPA; pH 7.4, 10 µM, 16 h at 30 °C
in vitro [7] = type: in vitro ADME; conditions: bovine; fraction unbound in OCI-Ly1 DC50 assay medium; read-out: fu,media
human BCL6 BTB domain [8] = target: T1, human BCL6 BTB domain (Homo sapiens, UniProt P41182); test: biochemical
Protocol: (§6) Assays were performed in a 384-well black Proxiplate (Perkin Elmer) containing 1 nM Trx-6xHis-BCL6 (in
(§7) anti-6xHis-Terbium cryptate (CisBio Bioassays, France), in assay buffer (25 mM Hepes pH8, 100 mM NaCl,
(§8) 0.05% Tween20, 0.5 mM TCEP, 0.05% bovine serum albumin). Test compounds in DMSO or DMSO alone
(§9) were added to the wells using an ECHO550 acoustic dispenser (Labcyte Inc) to give the appropriate test
(§10) concentration in 0.7% v/v DMSO final. After 2 hours incubation at room temperature the plate was read
(§11) The % inhibition at each concentration was calculated by normalising FRET ratio to the
(§12) appropriate high (DMSO with all reagents) and low (DMSO without BCL6) controls. IC50 values were
(§13) determined using GraphPad Prism 6.0 or Dotmatics (Bishops Stortford, UK) software by fitting the
(§14) normalised data to a sigmoidal four-parameter logistic fit equation.

human BCL6 BTB domain [9] = target: T1, human BCL6 BTB domain; conditions: for BCL6 TR-FRET pIC50 mean: mean of replicates
Protocol: as §6, §7, §8, §9, §10, §11, §12, §13, §14

[10] = OCI-Ly1, read-out: MSD degrader assay [OCI-LY1] Dmax individual replicates, single replicate values
[11] = OCI-Ly1, read-out: MSD degrader assay [OCI-Ly1] Dmax, mean maximal degradation of BCL6, OCI-Ly1 cells, 2 h
[12] = read-out: MSD degrader assay [OCI-LY1] DC50 individual replicates, single replicate values
[13] = read-out: MSD degrader assay [OCI-Ly1] DC50, geometric mean, OCI-Ly1 cells, 2 h incubation
[14] = BCL6 TR-FRET IC50 individual replicates, single replicate values
[15] = BCL6 TR-FRET pIC50 mean, mean of replicates
[16] = reversed-phase HPLC on Phenomenex Luna C8 column
[17] = kinetic solubility by NMR in HEPES buffer at pH 8, 4% DMSO
[18] = read-out: BCL6 TR-FRET IC50, geometric mean, BCOR-AF633 peptide, 2 h incubation
[19] = read-out: BCL6 TR-FRET IC50 individual replicates, single replicate values

SMILES	Dmax [1, 10]	Dmax [1, 11]	MSD degrader assay [OCI-Ly1] Dmax ([1]; OCI-Ly1 cells, 2 h)	MSD degrader assay [OCI-LY1] pDC50 mean [1]	DC50 [1, 12]	DC50 [1, 13]	MSD degrader assay [OCI-LY1] Dmax individual replicates ([1]; single replicate values)	IC50 (human BCL6 BTB domain [8]; [14])	degradation of BCL6 (in words) [1]	microsomal CLint at 0.5 h, 1 µM [2]	chromatographic logD [5, 16]	solubility kinetic at 20 h (NMR solubility assay; [17])	BCL6 TR-FRET pIC50 mean (human BCL6 BTB domain [9])	IC50 (human BCL6 BTB domain [9]; [18])	IC50 (human BCL6 BTB domain [9]; [19])	further results
C[C@H]1C[C@@H](O)CN(c2ncc(Cl)c(Nc3ccc4c(c3)n(CCC(C)(C)O)c(=O)n4C)n2)C1 (relative stereo) [compound 5, 5-((5-Chloro-2-(3-hydroxy-5-methylpiperidin-1-yl)pyrimidin-4-yl)amino)-3-(3-hydroxy-3-methylbutyl)-1-methyl-1,3-dihydro-2H-benzo[d]imidazol-2-one]	91%	88.8%	89%	7.4626	66 nM and 18 nM	35 nM and 34.5 nM	86.653%	101 nM and 99.6 nM and 94.3 nM and 86.2 nM	–	–	–	–	–	–	–	DC50 ([1]; read-out: Calculated free DC50 [OCI-Ly1], DC50 corrected with fu,media): 12.4 nM; microsomal CLint at 1 μM [2]: 122 µL/min/mg; microsomal CLint at 1 μM [3]: 28 µL/min/mg; microsomal CLint at 1 μM [4]: 14 µL/min/mg; chromatographic logD [5]: 2.3; solubility kinetic at 20 h (NMR solubility assay; pH 8, aqueous buffer, kinetic from dmso stock): 40 µM (≈ 19 µg/mL); Papp (in vitro [6]): 23 ×10⁻⁶ cm/s; fraction unbound (in vitro [7]): 0.37; IC50 (human BCL6 BTB domain [8]; BCL6 TR-FRET IC50, geometric mean, BCOR-AF633 peptide, 2 h incubation): 95 nM; IC50 (human BCL6 BTB domain [8]; [15]): 95.1 nM
CC(=O)N[C@H]1C[C@@H](C)CN(c2ncc(Cl)c(Nc3ccc4c(c3)c3c(c(=O)n4C)OCC(F)(F)[C@H](C4CC4)N3)n2)C1 [10b, N-((3S,5R)-1-(5-Chloro-4-(((S)-2-cyclopropyl-3,3-difluoro-7-methyl-6-oxo-1,2,3,4,6,7-hexahydro-[1,4]oxazepino[2,3-c]quinolin-10-yl)amino)pyrimidin-2-yl)-5-methylpiperidin-3-yl)acetamide]	< 30%	< 30%	> 30%	–	> 2000 nM	> 2000 nM	–	3.5 nM and 2.6 nM and 2.5 nM	nondegrading isomer	134 µL/min/mg	2.8	15 µM (≈ 8.82 µg/mL)	8.5388	2.9 nM	3 nM	–
C[C@H]1C[C@@H](N(C)C)CN(c2ncc(Cl)c(Nc3ccc4c(c3)c3c(c(=O)n4C)OCC(F)(F)[C@H](C4CC4)N3)n2)C1 [11a, (S)-10-((5-Chloro-2-((3R,5S)-3-(dimethylamino)-5-methylpiperidin-1-yl)pyrimidin-4-yl)amino)-2-cyclopropyl-3,3-difluoro-7-methyl-1,2,3,4-tetrahydro-[1,4]oxazepino[2,3-c]quinolin-6(7H)-one]	53.6%	–	56%	8.0099	8.3 nM and 8.9 nM and 12.7 nM	9.8 nM	60.7% and 54.9%	3.9 nM and 3 nM	potently degrading isomer	876 µL/min/mg	3.3	60 µM (≈ 34.4 µg/mL)	8.4757	3.3 nM	3.2 nM and 3.3 nM	–
C[C@@H]1C[C@H](N(C)C)CN(c2ncc(Cl)c(Nc3ccc4c(c3)c3c(c(=O)n4C)OCC(F)(F)[C@H](C4CC4)N3)n2)C1 [11b, (S)-10-((5-Chloro-2-((3S,5R)-3-(dimethylamino)-5-methylpiperidin-1-yl)pyrimidin-4-yl)amino)-2-cyclopropyl-3,3-difluoro-7-methyl-1,2,3,4-tetrahydro-[1,4]oxazepino[2,3-c]quinolin-6(7H)-one]	< 30%	< 30%	> 30%	–	> 2000 nM	> 2000 nM	–	3.3 nM and 3 nM and 4.8 nM	nondegrading isomer	681 µL/min/mg	3.3	58 µM (≈ 33.3 µg/mL)	8.4399	3.6 nM	–	–
Cn1c(=O)c2c(c3cc(Nc4nc(N5CCC[C@@H](O)C5)ncc4Cl)ccc31)N[C@@H](C1CC1)C(F)(F)CO2 [14a, (S)-10-((5-chloro-2-((R)-3-hydroxypiperidin-1-yl)pyrimidin-4-yl)amino)-2-cyclopropyl-3,3-difluoro-7-methyl-1,2,3,4-tetrahydro-[1,4]oxazepino[2,3-c]quinolin-6(7H)-one]	34.9%	34.9%	35%	–	> 2000 nM	> 2000 nM	–	1.7 nM and 2.4 nM	–	88 µL/min/mg	–	25 µM (≈ 13.3 µg/mL)	–	3 nM	3.1 nM	chromatographic logD [5]: 2.7; IC50 (human BCL6 BTB domain [8]; [15]): 2.46 nM
C[C@H]1CCCN(c2ncc(Cl)c(Nc3ccc4c(c3)c3c(c(=O)n4C)OCC(F)(F)[C@H](C4CC4)N3)n2)C1 [15a, (S)-10-((5-chloro-2-((S)-3-methylpiperidin-1-yl)pyrimidin-4-yl)amino)-2-cyclopropyl-3,3-difluoro-7-methyl-1,2,3,4-tetrahydro-[1,4]oxazepino[2,3-c]quinolin-6(7H)-one]	88.4%	85.5%	86%	8.1987	16 nM and 1.7 nM and 9.3 nM	6.3 nM	83.3% and 85.0%	48 nM and 29.5 nM and 34.4 nM	degraders of BCL6	568 µL/min/mg	4.9	0 µM	7.4377	36.5 nM	–	–
C[C@@H]1CCCN(c2ncc(Cl)c(Nc3ccc4c(c3)c3c(c(=O)n4C)OCC(F)(F)[C@H](C4CC4)N3)n2)C1 [15b, (S)-10-((5-Chloro-2-((R)-3-methylpiperidin-1-yl)pyrimidin-4-yl)amino)-2-cyclopropyl-3,3-difluoro-7-methyl-1,2,3,4-tetrahydro-[1,4]oxazepino[2,3-c]quinolin-6(7H)-one]	73.4%	72.1%	72%	7.4874	19.4 nM and 39.6 nM and 44.8 nM	32.6 nM	70.6% and 72.2%	27.6 nM and 22.6 nM	degraders of BCL6	204 µL/min/mg	5	0 µM	7.6089	24.6 nM	23.8 nM	–
